≈ marks a conversion by molar mass, not a printed value.
What follows are compounds tested on S. aureus (assay: Minimum inhibitory concentrations (MICs) for S. aureus of exemplary compounds (Table 2)). Details: Staphylococcus aureus, minimum inhibitory concentrations for S. aureus; read-out: MICs.
Format: cell-based
In short: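 Growth of S. aureus in media with or without compound, by broth microdilution in microtiter trays following NCCLS M7-A5 guidelines. Values are MICs in μg/mL.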

Compound	MIC
CC(=O)NC[C@H]1CN(c2ccc(-c3ccc(C(=O)NCCc4cnc[nH]4)cc3)c(F)c2)C(=O)O1 [Compound 4116, 4′-[5-(S)-(Acetylamino-methyl)-2-oxo-oxazolidin-3-yl]-2′-fluoro-biphenyl-4-carboxylic acid [2-(3H-imidazol-4-yl)-ethyl]-amide]	1 µg/mL (≈ 2.15 µM)
CC(=O)NC[C@H]1CN(c2ccc(-c3ccc(NC(=O)NCc4ccncc4)cc3)c(F)c2)C(=O)O1 [Compound 6004, N-{3-[2-Fluoro-4′-(3-pyridin-4-ylmethyl-ureido)-biphenyl-4-yl]-2-oxo-oxazolidin-5-(S)-ylmethyl}-acetamide]	1 µg/mL (≈ 2.09 µM)
CC(=O)NC[C@H]1CN(c2ccc(-c3ccc(CNCCSc4nnc[nH]4)cc3)c(F)c2)C(=O)O1 [Compound 5005, N-[3-(2-Fluoro-4′-{[2-(4H-[1,2,4]triazol-3-ylsulfanyl)-ethylamino]-methyl}-biphenyl-4-yl)-2-oxo-oxazolidin-5-(S)-ylmethyl]-acetamide]	0.5 µg/mL (≈ 1.03 µM)
CC(=O)NC[C@H]1CN(c2ccc(-c3ccc(CNC(C(N)=O)c4cccnc4)cc3)c(F)c2)C(=O)O1 (stereo partly drawn) [Compound 4293, 2-({4′-[5-(S)-(Acetylamino-methyl)-2-oxo-oxazolidin-3-yl]-2′-fluoro-biphenyl-4-ylmethyl}-amino)-2-pyridin-3-yl-acetamide]	4 µg/mL (≈ 8.14 µM)
CC(=O)NC[C@H]1CN(c2ccc(-c3ccc(CNn4cnnc4)cc3)c(F)c2)C(=O)O1 [Compound 2046, N-{3-[2-Fluoro-4′-([1,2,4]triazol-4-ylaminomethyl)-biphenyl-4-yl]-2-oxo-oxazolidin-5-(S)-ylmethyl}-acetamide]	1 µg/mL (≈ 2.36 µM)
CC(=O)NC[C@H]1CN(c2ccc(-c3ccc(CNCc4cccnc4F)cc3)c(F)c2)C(=O)O1 [Compound 4257, N-[3-(2-Fluoro-4′-{[(2-fluoro-pyridin-3-ylmethyl)-amino]-methyl}-biphenyl-4-yl)-2-oxo-oxazolidin-5-(S)-ylmethyl]-acetamide]	0.5 µg/mL (≈ 1.07 µM)
CC(=O)NC[C@H]1CN(c2ccc(-c3ccc([C@H](O)Cn4ccnn4)cc3)c(F)c2)C(=O)O1 [Compound 1061, N-{3-[2-Fluoro-4′-(1-(S)-hydroxy-2-[1,2,3]triazol-1-yl-ethyl)-biphenyl-4-yl]-2-oxo-oxazolidin-5-(S)-ylmethyl}-acetamide]	1 µg/mL (≈ 2.28 µM)
CC(=O)NC[C@H]1CN(c2ccc(-c3ccc(Cn4cncn4)nc3)c(F)c2)C(=O)O1 [Compound 1072, N-{3-[3-Fluoro-4-(6-[1,2,4]triazol-1-ylmethyl-pyridin-3-yl)-phenyl]-2-oxo-oxazolidin-5-(S)-ylmethyl}-acetamide]	1 µg/mL (≈ 2.44 µM)
CC(=O)NC[C@H]1CN(c2ccc(-c3ccc(C(CO)NCc4csnn4)cc3)c(F)c2)C(=O)O1 (mixture of isomers) [Compound 4171, N-[3-(2-Fluoro-4′-{2-hydroxy-1-[([1,2,3]thiadiazol-4-(R/S)-ylmethyl)-amino]-ethyl}-biphenyl-4-yl)-2-oxo-oxazolidin-5-(S)-ylmethyl]-acetamide]	4 µg/mL (≈ 8.24 µM)
CC(=O)NC[C@H]1CN(c2ccc(-c3ccc(CNCc4ncon4)cc3)c(F)c2)C(=O)O1 [Compound 4233, N-[3-(2-Fluoro-4′-{[([1,2,4]oxadiazol-3-ylmethyl)-amino]-methyl}-biphenyl-4-yl)-2-oxo-oxazolidin-5-(S)-ylmethyl]-acetamide]	0.5 µg/mL (≈ 1.14 µM)
CCOC(=O)c1c(CNCc2ccc(-c3ccc(N4C[C@H](CNC(C)=O)OC4=O)cc3F)cc2)c(C)n(C2CC2)c1C [Compound 4157, 4-[({4′-[5-(S)-(Acetylamino-methyl)-2-oxo-oxazolidin-3-yl]-2′-fluoro-biphenyl-4-ylmethyl}-amino)-methyl]-1-cyclopropyl-2,5-dimethyl-1H-pyrrole-3-carboxylic acid ethyl ester]	8 µg/mL (≈ 13.9 µM)
CC(=O)NC[C@H]1CN(c2ccc(-c3ccc(CNCCC4C=Nc5ccc(C)cc54)cc3)c(F)c2)C(=O)O1 (stereo partly drawn) [Compound 4228, N-[3-(2-Fluoro-4′-{[2-(5-methyl-3H-indol-3-yl)-ethylamino]-methyl}-biphenyl-4-yl)-2-oxo-oxazolidin-5-(S)-ylmethyl]-acetamide]	2 µg/mL (≈ 3.89 µM)
CC(=O)NC[C@H]1CN(c2ccc(-c3ccc([C@H](O)CN(CCCF)Cc4ccccc4)cc3)c(F)c2)C(=O)O1 [Compound 4247, N-[3-(4′-{2-[Benzyl-(3-fluoro-propyl)-amino]-1-(S)-hydroxy-ethyl}-2-fluoro-biphenyl-4-yl)-2-oxo-oxazolidin-5-(S)-ylmethyl]-acetamide]	8 µg/mL (≈ 14.9 µM)
CNc1ncnc2c1ncn2Cc1ccc(-c2ccc(N3C[C@H](CNC(C)=O)OC3=O)cc2F)cc1 [Compound 1106, N-{3-[2-Fluoro-4′-(6-methylamino-purin-9-ylmethyl)-biphenyl-4-yl]-2-oxo-oxazolidin-5-(S)-ylmethyl}-acetamide]	1 µg/mL (≈ 2.04 µM)
CC(=O)NC[C@H]1CN(c2ccc(-c3ccc(CNCc4cccn4C)cc3)c(F)c2)C(=O)O1 [Compound 4059, N-[3-(2-Fluoro-4′-{[(1-methyl-1H-pyrrol-2-ylmethyl)-amino]-methyl}-biphenyl-4-yl)-2-oxo-oxazolidin-5-(S)-ylmethyl]-acetamide]	2 µg/mL (≈ 4.44 µM)
CC(=O)NC[C@H]1CN(c2ccc(-c3ccc(Cn4cccc4)nc3)c(F)c2)C(=O)O1 [Compound 1071, N-{3-[3-Fluoro-4-(6-pyrrol-1-ylmethyl-pyridin-3-yl)-phenyl]-2-oxo-oxazolidin-5-(S)-ylmethyl}-acetamide]	0.25 µg/mL (≈ 0.612 µM)
CC(=O)NC[C@H]1CN(c2ccc(-c3ccc(CNC(=O)c4cccn4C)cc3)c(F)c2)C(=O)O1 [Compound 4010, 1-Methyl-1H-pyrrole-2-carboxylic acid {4′-[5-(S)-(acetylamino-methyl)-2-oxo-oxazolidin-3-yl]-2′-fluoro-biphenyl-4-ylmethyl}-amide]	1 µg/mL (≈ 2.15 µM)
CC(=O)NC[C@H]1CN(c2ccc(-c3ccc([C@H](CO)NCc4ccncc4)cc3)c(F)c2)C(=O)O1 [Compound 4029, N-[3-(2-Fluoro-4′-{2-hydroxy-1-(R)-[(pyridin-4-ylmethyl)-amino]-ethyl}-biphenyl-4-yl)-2-oxo-oxazolidin-5-(S)-ylmethyl]-acetamide]	4 µg/mL (≈ 8.36 µM)
CC(=O)NC[C@H]1CN(c2ccc(-c3ccc(SCc4ccncc4)cc3)c(F)c2)C(=O)O1 [Compound 3001, N-{3-[2-Fluoro-4′-(pyridin-4-ylmethylsulfanyl)-biphenyl-4-yl]-2-oxo-oxazolidin-5-(S)-ylmethyl}-acetamide]	1 µg/mL (≈ 2.21 µM)
CC(=O)NC[C@H]1CN(c2ccc(-c3ccc(C(=O)NCc4ncsn4)cc3)c(F)c2)C(=O)O1 [Compound 4225, 4′-[5-(S)-(Acetylamino-methyl)-2-oxo-oxazolidin-3-yl]-2′-fluoro-biphenyl-4-carboxylic acid ([1,2,4]thiadiazol-3-ylmethyl)-amide]	1 µg/mL (≈ 2.13 µM)
CC(=O)NC[C@H]1CN(c2ccc(-c3ccc(Cn4cnc5c(NCCCF)ncnc54)cc3)c(F)c2)C(=O)O1 [Compound 1098, N-(3-{2-Fluoro-4′-[6-(3-fluoro-propylamino)-purin-9-ylmethyl]-biphenyl-4-yl}-2-oxo-oxazolidin-5-(S)-ylmethyl)-acetamide]	2 µg/mL (≈ 3.73 µM)
CC(=O)NC[C@H]1CN(c2ccc(-c3ccc(C(=O)NCc4ccccn4)cc3)c(F)c2)C(=O)O1 [Compound 4110, 4′-[5-(S)-(Acetylamino-methyl)-2-oxo-oxazolidin-3-yl]-2′-fluoro-biphenyl-4-carboxylic acid (pyridin-2-ylmethyl)-amide]	0.25 µg/mL (≈ 0.541 µM)
CC(=O)NC[C@H]1CN(c2ccc(-c3ccc(CN(C)Cc4cnc[nH]4)cc3)c(F)c2)C(=O)O1 [Compound 4067, N-[3-(2-Fluoro-4′-{[(3H-imidazol-4-ylmethyl)-methyl-amino]-methyl}-biphenyl-4-yl)-2-oxo-oxazolidin-5-(S)-ylmethyl]-acetamide]	4 µg/mL (≈ 8.86 µM)
CC(=O)NC[C@H]1CN(c2ccc(-c3ccc([C@H](O)CN(CCC(F)(F)Cl)Cc4ccccc4)cc3)c(F)c2)C(=O)O1 [Compound 4249, N-[3-(4′-{2-[Benzyl-(3-chloro-3,3-difluoro-propyl)-amino]-1-(S)-hydroxy-ethyl}-2-fluoro-biphenyl-4-yl)-2-oxo-oxazolidin-5-(S)-ylmethyl]-acetamide]	8 µg/mL (≈ 13.6 µM)
CC(=O)NC[C@H]1CN(c2ccc(-c3ccc(Cn4cnc5c(NCCCO)ncnc54)cc3)c(F)c2)C(=O)O1 [Compound 1107, N-(3-{2-Fluoro-4′-[6-(3-hydroxy-propylamino)-purin-9-ylmethyl]-biphenyl-4-yl}-2-oxo-oxazolidin-5-(S)-ylmethyl)-acetamide]	2 µg/mL (≈ 3.75 µM)
CC(=O)NC[C@H]1CN(c2ccc(-c3ccc(CNC(=O)c4ccc(F)cc4)cc3)c(F)c2)C(=O)O1 [Compound 4013, N-{4′-[5-(S)-(Acetylamino-methyl)-2-oxo-oxazolidin-3-yl]-2′-fluoro-biphenyl-4-ylmethyl}-4-fluoro-benzamide]	8 µg/mL (≈ 16.7 µM)
CC(=O)NC[C@H]1CN(c2ccc(-c3ccc(CNC(=O)Nc4cccc(F)c4)cc3)c(F)c2)C(=O)O1 [Compound 5013, N-(3-{2-Fluoro-4′-[3-(3-fluoro-phenyl)-ureidomethyl]-biphenyl-4-yl}-2-oxo-oxazolidin-5-(S)-ylmethyl)-acetamide]	32 µg/mL (≈ 64.7 µM)
CC(=O)NC[C@H]1CN(c2ccc(-c3ccc(CNCC4CCNC4)cc3)c(F)c2)C(=O)O1 (mixture of isomers) [Compound 4153, N-[3-(2-Fluoro-4′-{[(pyrrolidin-3-(R/S)-ylmethyl)-amino]-methyl}-biphenyl-4-yl)-2-oxo-oxazolidin-5-(S)-ylmethyl]-acetamide]	4 µg/mL
CC(=O)NC[C@H]1CN(c2ccc(-c3ccc(CNNC(=O)c4snnc4C)cc3)c(F)c2)C(=O)O1 [Compound 4271, N-(3-{2-Fluoro-4′-[N′-(4-methyl-[1,2,3]thiadiazole-carbonyl)-hydrazinomethyl]-biphenyl-4-yl}-2-oxo-oxazolidin-5-(S)-ylmethyl)-acetamide]	0.25 µg/mL (≈ 0.501 µM)

Same assay, conditions: Staphylococcus aureus, read-out: MICs

Compound	MIC
COc1cccc(CNc2nc(Cc3ccc(-c4ccc(N5C[C@H](CNC(C)=O)OC5=O)cc4F)cc3)cs2)c1 [Compound 1021, N-(3-{2-Fluoro-4′-[2-(3-methoxy-benzylamino)-thiazol-4-ylmethyl]-biphenyl-4-yl}-2-oxo-oxazolidin-5-(S)-ylmethyl)-acetamide]	1 µg/mL (≈ 1.78 µM)

— patent US10471046B2, “Method for treating, preventing, or reducing the risk of skin infection” (Melinta Subsidiary Corp., priority 2014, dated 2019)
